Data from US11229664B2, “Treatment of myelosuppression” (priority 2012, dated 2022).
pKd: −log10 of the molar value. Several values for one entry are separate records, joined by “and”; a condition that tells them apart may be missing. Equal entries are not always repeated.

Key:
platelets = experiment: Clinical trial, metastatic pancreatic cancer: platelet count / thrombocytopenia grade; type: in vivo, human; set-up: Platelet count at start of cycle, Cycle 4 / Platelet count: unit: ×10^3/μl blood
From the text: (§1) Male and non-pregnant, non-lactating, female patients, aged 18 to 75, with histologically confirmed metastatic adenocarcinoma of the pancreas were enrolled in the trial. […] Treatment consisted of a series of 28-day cycles, wherein the last day of one cycle (e.g., day 28, cycle 1) was immediately followed by the first day of the next cycle (e.g., day 1, cycle 2). […] Nab-paclitaxel and gemcitabine therapy was given as described in the prescribing information for Abraxane® and Gemzar®. See also, Von Hoff et al., 2011, J. […] As a substantially non-anticoagulant heparinoid, ODSH can be administered at a dose that is greater than the fully anticoagulant dose of unfractionated heparin, without concern for anticoagulant effect, as shown in the Results below. An initial run-in period was conducted in which ten patients were treated with the gemcitabine, nab-paclitaxel, and ODSH regimen described above. After all ten patients had completed at least one 28-day cycle, the data were reviewed and an open-label randomized study initiated, with two arms (ODSH arm and Control arm). In the ODSH arm, the dosing regimen was the same as in the run-in period (gemcitabine, nab-paclitaxel, and ODSH). In the Control arm, patients were given the same gemcitabine and nab-paclitaxel regimen as in the run-in period, but without ODSH. […] Platelet counts, total white blood cell counts, and absolute neutrophil counts were performed. Grading of thrombocytopenia and/or neutropenia was performed according to the following standards: [table]

neutrophils = experiment: Clinical trial, metastatic pancreatic cancer: absolute neutrophil count / neutropenia grade; type: in vivo, human; set-up: Neutrophil count: unit not given here; conditions: for Neutrophil Values / Neutrophil count: individual patients; for Neutrophil Values: ODSH adjunctive to gemcitabine and nab-paclitaxel; for Neutrophil count: randomized stage
From the text: as §1

[1] = type: in vivo, human; conditions: ODSH adjunct to gemcitabine/nab-paclitaxel
Method: Treatment consisted of a series of 28-day cycles, wherein the last day of one cycle (e.g., day 28, cycle 1) was immediately followed by the first day of the next cycle (e.g., day 1, cycle 2). In each 28-day treatment cycle, patients were dosed at days 1, 8, and 15 (three weeks of medication followed by one week of rest) as follows. First, nab-paclitaxel at 125 mg/m^2 was administered as an intravenous infusion over 30 minutes.
Patients were also assessed for other side effects of chemotherapy, including fatigue, sensory neuropathy, nausea, and vomiting, each of which was graded according to severity. Grades were: 0 (normal), 1 (mild), 2 (moderate), 3 (severe) and 4 (life-threatening).

anti-thrombin III = anti-thrombin III (Homo sapiens, UniProt P01008); conditions: cited from earlier work
Sequence of anti-thrombin III (P01008 33-464, species assumed): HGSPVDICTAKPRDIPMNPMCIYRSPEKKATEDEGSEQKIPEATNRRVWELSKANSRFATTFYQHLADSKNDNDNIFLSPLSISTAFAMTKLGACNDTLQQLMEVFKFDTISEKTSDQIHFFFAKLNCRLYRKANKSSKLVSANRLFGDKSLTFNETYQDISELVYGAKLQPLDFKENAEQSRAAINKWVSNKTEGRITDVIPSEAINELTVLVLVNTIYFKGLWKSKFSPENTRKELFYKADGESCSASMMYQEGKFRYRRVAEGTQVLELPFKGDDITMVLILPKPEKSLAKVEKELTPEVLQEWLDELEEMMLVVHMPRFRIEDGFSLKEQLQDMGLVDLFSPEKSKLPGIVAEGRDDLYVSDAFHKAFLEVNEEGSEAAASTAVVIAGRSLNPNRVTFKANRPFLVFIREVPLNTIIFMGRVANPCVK

[2] = ODSH adjunct to gemcitabine/nab-paclitaxel

substantially 2-O, 3-O desulfated heparin [ODSH]
Platelet count (platelets; open-label randomized trial, per arm, Cycle 5 Day 1): 389
Platelet count (platelets; open-label randomized trial, per arm, Cycle 5 Day 15): 121
Platelet count (platelets; open-label randomized trial, per arm, Cycle 6 Day 1): 371
Platelet count (platelets; open-label randomized trial, per arm, Cycle 6 Day 15): 132
Platelet Count, Screen (platelets; prior to entry into the clinical trial protocol, individual patients): 321 ×10^3/μl blood and 187 ×10^3/μl blood and 269 ×10^3/μl blood and 267 ×10^3/μl blood and 166 ×10^3/μl blood and 271 ×10^3/μl blood and 204 ×10^3/μl blood and 505 ×10^3/μl blood
Platelet count (platelets; randomized stage, individual patients, Cycle 1 Day 15): 231 and 216 and 121 and 103 and 199 and 172 and 162 and 232
Platelet count (platelets; randomized stage, individual patients, Cycle 2 Day 15): 110 and 156 and 95 and 74 and 92 and 165
Platelet count (platelets; randomized stage, individual patients, Cycle 3 Day 15): 124 and 74 and 76 and 96
Platelet count (platelets; randomized stage, individual patients, Cycle 4 Day 15): 31 and 138
Platelet counts, ODSH arm vs Control arm (platelets; randomized stage, gemcitabine + nab-paclitaxel with or without ODSH): statistically significant difference
Median and mean platelet counts at day 15 of the first cycle, ODSH arm vs patients not receiving ODSH (platelets; randomized trial, 5 patients in each arm, p=0.013 unpaired t-test): significantly higher
Platelet recovery by day 1 of a subsequent cycle, ODSH arm vs control arm (platelets; randomized trial, p=0.0004 after 6 cycles, unpaired t-test): enhanced
Patients with increased or unchanged neutrophil counts on first day of second cycle vs first day of first cycle (neutrophils; [2]): Five out of 10
Patients with normal neutrophil counts at the start of the fourth cycle (neutrophils; [2]): 10 out of 10
Patients with normal neutrophil counts at the start of the third cycle (neutrophils; [2]): 8 out of 9
Patients with normal neutrophil counts on the first day of the second treatment cycle (neutrophils; [2]): Eight out of 10
Mean and median absolute neutrophil counts on the first day of treatment cycles 2 and 3 (neutrophils; all samples (FIG. 10B), ODSH adjunct to gemcitabine/nab-paclitaxel): above 2,000
Patients with no more than mild neutropenia after two doses of treatment (neutrophils; day 15, first cycle, ODSH adjunct to gemcitabine/nab-paclitaxel): 44%
Patients with no more than mild neutropenia after five or eight doses of treatment (neutrophils; day 15 of cycle 2 or day 15 of cycle 3, ODSH adjunct to gemcitabine/nab-paclitaxel): 7 out of 10
Neutrophil Values (neutrophils; Cycle 1 Day 1 (before treatment)): 4.3 ×10^3/μl blood (2×) and 3.6 ×10^3/μl blood (2×) and 5.5 ×10^3/μl blood and 2.1 ×10^3/μl blood and 3.3 ×10^3/μl blood
Neutrophil Values (neutrophils; Cycle 1 Day 8): 1.3 ×10^3/μl blood and 2.1 ×10^3/μl blood and 4.3 ×10^3/μl blood and 0.5 ×10^3/μl blood and 3.0 ×10^3/μl blood and 1.5 ×10^3/μl blood
Neutrophil Values (neutrophils; Cycle 1 Day 15): 0.7 ×10^3/μl blood (2×) and 1.6 ×10^3/μl blood and 3.6 ×10^3/μl blood and 3.5 ×10^3/μl blood and 1.0 ×10^3/μl blood
Neutrophil Values (neutrophils; Cycle 2 Day 1): 7.3 ×10^3/μl blood and 1.6 ×10^3/μl blood and 4.6 ×10^3/μl blood and 13.0 ×10^3/μl blood and 2.1 ×10^3/μl blood and 6.0 ×10^3/μl blood and 3.6 ×10^3/μl blood
Neutrophil Values (neutrophils; Cycle 2 Day 8): 3.8 ×10^3/μl blood and 2.6 ×10^3/μl blood and 3.7 ×10^3/μl blood (2×) and 6.3 ×10^3/μl blood and 1.3 ×10^3/μl blood and 1.9 ×10^3/μl blood
Neutrophil Values (neutrophils; Cycle 2 Day 15): 1.8 ×10^3/μl blood and 1.7 ×10^3/μl blood and 3.8 ×10^3/μl blood and 0.7 ×10^3/μl blood and 1.5 ×10^3/μl blood and 1.1 ×10^3/μl blood and 1.0 ×10^3/μl blood
Neutrophil Values (neutrophils; Cycle 3 Day 1): 2.7 ×10^3/μl blood and 2.8 ×10^3/μl blood and 2.2 ×10^3/μl blood and 3.9 ×10^3/μl blood and 1.8 ×10^3/μl blood and 3.2 ×10^3/μl blood
Neutrophil Values (neutrophils; Cycle 3 Day 8): 1.6 ×10^3/μl blood and 4.2 ×10^3/μl blood and 6.8 ×10^3/μl blood and 3.9 ×10^3/μl blood and 1.4 ×10^3/μl blood (2×)
Neutrophil Values (neutrophils; Cycle 3 Day 15): 1.5 ×10^3/μl blood (2×) and 1.8 ×10^3/μl blood and 4.5 ×10^3/μl blood and 1.4 ×10^3/μl blood and 0.8 ×10^3/μl blood and 2.6 ×10^3/μl blood
Neutrophil Values (neutrophils; Cycle 4 Day 1): 2.2 ×10^3/μl blood and 5.2 ×10^3/μl blood and 5.7 ×10^3/μl blood and 5.9 ×10^3/μl blood and 3.5 ×10^3/μl blood and 3.2 ×10^3/μl blood and 2.7 ×10^3/μl blood
Neutrophil Values (neutrophils; Cycle 4 Day 8): 2.5 ×10^3/μl blood and 2.7 ×10^3/μl blood and 2.2 ×10^3/μl blood and 2.0 ×10^3/μl blood and 1.4 ×10^3/μl blood
Neutrophil Values (neutrophils; Cycle 4 Day 15): 4.6 ×10^3/μl blood and 2.4 ×10^3/μl blood and 3.4 ×10^3/μl blood and 0.7 ×10^3/μl blood and 1.7 ×10^3/μl blood
Neutrophil Values (neutrophils; Cycle 5 Day 1): 1.6 ×10^3/μl blood and 3.2 ×10^3/μl blood and 3.3 ×10^3/μl blood and 23.2 ×10^3/μl blood
Neutrophil Values (neutrophils; Cycle 5 Day 8): 2.1 ×10^3/μl blood and 3.4 ×10^3/μl blood and 1.6 ×10^3/μl blood and 4.1 ×10^3/μl blood
Neutrophil Values (neutrophils; Cycle 5 Day 15): 0.8 ×10^3/μl blood and 3.9 ×10^3/μl blood and 1.1 ×10^3/μl blood
Neutrophil Values (neutrophils; Cycle 6 Day 1): 13.5 ×10^3/μl blood and 2.3 ×10^3/μl blood
Neutrophil Values (neutrophils; Cycle 6 Day 8): 1.3 ×10^3/μl blood and 1.2 ×10^3/μl blood
Neutrophil Values (neutrophils; Cycle 6 Day 15): 1.7 ×10^3/μl blood and 10.7 ×10^3/μl blood
Neutrophil Values (neutrophils; Screen): 5.6 ×10^3/μl blood and 5.9 ×10^3/μl blood and 4.0 ×10^3/μl blood (2×) and 5.3 ×10^3/μl blood and 4.3 ×10^3/μl blood and 9.3 ×10^3/μl blood
Neutrophil count (neutrophils; Cycle 1 Day 15): 2.4 and 1.4 and 4.0 (2×) and 0.8 and 4.7 and 3.0 and 0.3
Neutrophil count (neutrophils; Cycle 2 Day 15): 1.8 (2×) and 1.6 and 0.8 and 3.7 (2×)
Neutrophil count (neutrophils; Cycle 3 Day 15): 1.0 and 1.6 and 0.8 and 5.4
Neutrophil count (neutrophils; Cycle 4 Day 15): 4.8 and 4.1
Patients experiencing no more than Grade 1 side effects (fatigue, sensory neuropathy, nausea, vomiting) [1]: more than 50%
Kd, affinity for anti-thrombin III (anti-thrombin III): ~4000 µg/mL
pKd (anti-thrombin III; read-out: Kd, affinity for anti-thrombin III): ~3.47
